# Legend:
# [1] = compound: NC(=O)CCCCC1CCSS1 [lipoamide]; test: thermal stability z-score vs DMSO; higher = more thermally stabilized by treatment; details: HeLa, lipoamide concentration 100 µM
# Procedure: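 Cellular thermal proteome profiling in HeLa cells. Cells were treated with 100 µM lipoamide for 1 h, with or without 1 mM arsenate for a further 1 h, then heated to ten temperatures (37-66.3 °C), and soluble protein was quantified by TMT mass spectrometry relative to 0.1% DMSO controls. The thermal stability score (sum of log2 fold changes minus the abundance score) was transformed to a z-score; mean of n = 3 experiments.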
# [2] = compound: O=[As]([O-])(O)O.[K+] [potassium arsenate]; test: as above; details: HeLa; arsenate concentration 1 mM
# Procedure: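 Cellular thermal proteome profiling in HeLa cells treated with 1 mM arsenate for 1 h (DMSO pretreatment), heated to ten temperatures (37-66.3 °C). Soluble protein was quantified by TMT mass spectrometry relative to DMSO controls; the thermal stability score was transformed to a z-score; mean of n = 3 experiments.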
# [3] = arsenate co-treatment: 1 mM arsenate 1 h
# 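Also: each temperature applied for 3 min, abundance score taken as mean log2 fold change at the two lowest temperatures, z-score obtained by mean subtraction and division by SD.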
# UniProt Q9H6K1, sequence (Q9H6K1 whole entry): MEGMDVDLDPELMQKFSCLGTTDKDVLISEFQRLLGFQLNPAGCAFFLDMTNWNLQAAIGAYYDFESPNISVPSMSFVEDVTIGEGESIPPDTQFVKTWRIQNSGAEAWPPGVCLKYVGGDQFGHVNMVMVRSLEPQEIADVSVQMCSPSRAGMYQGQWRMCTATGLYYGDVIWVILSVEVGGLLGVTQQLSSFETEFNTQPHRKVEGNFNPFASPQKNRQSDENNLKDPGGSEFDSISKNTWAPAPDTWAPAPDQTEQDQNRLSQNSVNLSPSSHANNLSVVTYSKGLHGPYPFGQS
# UniProt Q86YS7, sequence (Q86YS7 whole entry): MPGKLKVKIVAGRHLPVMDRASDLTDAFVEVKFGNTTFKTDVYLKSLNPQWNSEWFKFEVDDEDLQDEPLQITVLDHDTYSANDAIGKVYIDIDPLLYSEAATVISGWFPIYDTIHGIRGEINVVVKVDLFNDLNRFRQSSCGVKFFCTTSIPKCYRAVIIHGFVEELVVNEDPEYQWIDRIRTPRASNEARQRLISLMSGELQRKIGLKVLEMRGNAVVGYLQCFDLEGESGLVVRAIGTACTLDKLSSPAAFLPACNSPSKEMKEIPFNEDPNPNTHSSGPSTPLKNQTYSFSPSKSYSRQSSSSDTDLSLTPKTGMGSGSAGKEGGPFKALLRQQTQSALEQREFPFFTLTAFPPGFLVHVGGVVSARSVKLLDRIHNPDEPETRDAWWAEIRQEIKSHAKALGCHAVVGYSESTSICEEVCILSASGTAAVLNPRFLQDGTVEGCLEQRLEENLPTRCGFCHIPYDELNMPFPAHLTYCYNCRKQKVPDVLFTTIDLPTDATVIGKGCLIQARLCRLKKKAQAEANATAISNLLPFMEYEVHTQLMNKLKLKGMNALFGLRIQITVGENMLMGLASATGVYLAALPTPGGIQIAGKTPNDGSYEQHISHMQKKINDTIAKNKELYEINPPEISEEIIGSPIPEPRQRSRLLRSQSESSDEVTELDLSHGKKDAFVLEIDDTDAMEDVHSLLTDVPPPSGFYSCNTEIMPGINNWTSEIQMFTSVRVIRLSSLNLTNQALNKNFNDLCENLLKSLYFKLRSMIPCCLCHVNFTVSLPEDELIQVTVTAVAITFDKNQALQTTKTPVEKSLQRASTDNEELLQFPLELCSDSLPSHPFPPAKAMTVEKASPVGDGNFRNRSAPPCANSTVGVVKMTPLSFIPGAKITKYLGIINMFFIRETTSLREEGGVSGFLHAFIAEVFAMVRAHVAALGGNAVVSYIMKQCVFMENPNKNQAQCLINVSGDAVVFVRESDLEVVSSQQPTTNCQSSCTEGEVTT
# UniProt Q9H425, sequence (Q9H425 whole entry): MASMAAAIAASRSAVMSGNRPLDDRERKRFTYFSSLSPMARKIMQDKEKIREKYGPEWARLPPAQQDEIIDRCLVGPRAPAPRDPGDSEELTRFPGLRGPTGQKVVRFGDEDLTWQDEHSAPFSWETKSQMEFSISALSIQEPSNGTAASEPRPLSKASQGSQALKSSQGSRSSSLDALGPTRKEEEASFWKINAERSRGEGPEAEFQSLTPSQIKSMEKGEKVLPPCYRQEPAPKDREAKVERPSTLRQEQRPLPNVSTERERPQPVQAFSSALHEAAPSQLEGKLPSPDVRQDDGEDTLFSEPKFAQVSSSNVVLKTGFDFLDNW
# UniProt Q9BRJ6, sequence (Q9BRJ6 whole entry): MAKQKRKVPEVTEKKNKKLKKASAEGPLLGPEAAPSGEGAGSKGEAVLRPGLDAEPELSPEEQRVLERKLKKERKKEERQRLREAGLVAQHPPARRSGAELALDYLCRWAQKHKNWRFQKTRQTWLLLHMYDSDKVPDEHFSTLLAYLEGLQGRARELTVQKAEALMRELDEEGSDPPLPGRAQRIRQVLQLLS
# UniProt Q6ZSJ8, sequence (Q6ZSJ8 whole entry): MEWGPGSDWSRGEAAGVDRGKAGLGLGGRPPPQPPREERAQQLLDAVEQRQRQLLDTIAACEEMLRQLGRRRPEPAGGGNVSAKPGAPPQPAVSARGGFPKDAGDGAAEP
# UniProt Q07021, sequence (Q07021 whole entry): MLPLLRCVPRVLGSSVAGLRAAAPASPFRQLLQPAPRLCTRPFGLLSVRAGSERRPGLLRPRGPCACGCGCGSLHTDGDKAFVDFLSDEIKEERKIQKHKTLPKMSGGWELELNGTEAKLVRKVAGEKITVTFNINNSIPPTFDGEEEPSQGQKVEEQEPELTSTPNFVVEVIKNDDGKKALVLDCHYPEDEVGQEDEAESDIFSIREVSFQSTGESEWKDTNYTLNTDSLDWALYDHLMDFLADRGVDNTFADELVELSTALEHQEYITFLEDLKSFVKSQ
# UniProt Q9BXI9, sequence (Q9BXI9 whole entry): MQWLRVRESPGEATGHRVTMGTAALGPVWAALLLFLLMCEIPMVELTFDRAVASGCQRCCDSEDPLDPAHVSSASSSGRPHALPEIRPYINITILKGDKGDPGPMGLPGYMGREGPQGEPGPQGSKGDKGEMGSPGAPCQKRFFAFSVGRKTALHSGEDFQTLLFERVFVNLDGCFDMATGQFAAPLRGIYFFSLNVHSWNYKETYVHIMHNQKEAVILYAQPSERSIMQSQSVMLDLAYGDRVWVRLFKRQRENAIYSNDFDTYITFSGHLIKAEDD
# UniProt Q96MD7, sequence (Q96MD7 whole entry): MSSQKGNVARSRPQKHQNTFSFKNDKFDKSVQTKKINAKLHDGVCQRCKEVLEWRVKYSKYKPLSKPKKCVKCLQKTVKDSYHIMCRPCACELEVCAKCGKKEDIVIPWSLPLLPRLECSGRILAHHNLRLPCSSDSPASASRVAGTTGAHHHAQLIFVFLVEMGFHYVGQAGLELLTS
# UniProt Q8IXQ3, sequence (Q8IXQ3 whole entry): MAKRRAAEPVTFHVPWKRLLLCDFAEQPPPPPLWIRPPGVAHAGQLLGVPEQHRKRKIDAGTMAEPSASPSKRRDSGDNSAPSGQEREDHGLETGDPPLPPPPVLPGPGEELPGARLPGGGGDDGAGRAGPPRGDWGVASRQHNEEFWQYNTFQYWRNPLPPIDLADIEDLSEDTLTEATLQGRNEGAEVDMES
# UniProt Q8N6N3, sequence (Q8N6N3 whole entry): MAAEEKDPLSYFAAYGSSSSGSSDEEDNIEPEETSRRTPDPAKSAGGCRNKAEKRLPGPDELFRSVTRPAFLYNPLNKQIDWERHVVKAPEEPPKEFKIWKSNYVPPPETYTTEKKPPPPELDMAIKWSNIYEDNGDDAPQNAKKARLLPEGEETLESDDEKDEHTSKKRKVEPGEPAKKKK
# UniProt P04003, sequence (P04003 whole entry): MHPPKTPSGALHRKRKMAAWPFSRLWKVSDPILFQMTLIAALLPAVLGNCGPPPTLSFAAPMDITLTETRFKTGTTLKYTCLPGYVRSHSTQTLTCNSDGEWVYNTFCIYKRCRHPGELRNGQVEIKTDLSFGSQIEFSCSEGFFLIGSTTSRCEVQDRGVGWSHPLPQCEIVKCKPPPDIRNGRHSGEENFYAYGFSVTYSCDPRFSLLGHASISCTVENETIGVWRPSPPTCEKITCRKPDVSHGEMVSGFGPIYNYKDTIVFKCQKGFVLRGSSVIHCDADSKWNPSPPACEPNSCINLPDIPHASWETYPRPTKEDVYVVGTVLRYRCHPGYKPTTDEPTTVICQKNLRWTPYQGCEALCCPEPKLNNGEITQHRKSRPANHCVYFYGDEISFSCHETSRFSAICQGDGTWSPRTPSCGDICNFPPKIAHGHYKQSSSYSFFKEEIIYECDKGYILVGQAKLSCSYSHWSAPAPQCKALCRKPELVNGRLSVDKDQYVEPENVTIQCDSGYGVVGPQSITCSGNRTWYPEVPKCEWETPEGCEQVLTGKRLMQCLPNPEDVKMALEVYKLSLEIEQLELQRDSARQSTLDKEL
# UniProt Q8IYL3, sequence (Q8IYL3 whole entry): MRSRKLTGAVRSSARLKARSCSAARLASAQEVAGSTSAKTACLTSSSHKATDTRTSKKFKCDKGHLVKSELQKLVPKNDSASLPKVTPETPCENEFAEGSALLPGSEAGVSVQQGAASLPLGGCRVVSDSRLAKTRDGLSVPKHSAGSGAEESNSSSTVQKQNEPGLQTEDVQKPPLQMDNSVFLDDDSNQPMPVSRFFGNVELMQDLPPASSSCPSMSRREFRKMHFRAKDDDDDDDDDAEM
# UniProt P20851, sequence (P20851 whole entry): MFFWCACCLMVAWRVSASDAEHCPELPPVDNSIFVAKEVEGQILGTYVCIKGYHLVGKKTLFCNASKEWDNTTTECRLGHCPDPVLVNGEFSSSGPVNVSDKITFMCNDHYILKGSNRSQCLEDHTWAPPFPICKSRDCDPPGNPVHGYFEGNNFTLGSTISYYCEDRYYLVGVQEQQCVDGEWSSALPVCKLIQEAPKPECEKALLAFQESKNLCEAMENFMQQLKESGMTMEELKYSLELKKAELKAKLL
# UniProt Q9NWV4, sequence (Q9NWV4 whole entry): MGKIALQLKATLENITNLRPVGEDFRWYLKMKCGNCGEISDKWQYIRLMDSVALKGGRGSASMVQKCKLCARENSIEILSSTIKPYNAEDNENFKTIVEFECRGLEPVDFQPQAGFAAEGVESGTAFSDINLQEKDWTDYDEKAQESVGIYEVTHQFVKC
# UniProt Q8N0T1, sequence (Q8N0T1 whole entry): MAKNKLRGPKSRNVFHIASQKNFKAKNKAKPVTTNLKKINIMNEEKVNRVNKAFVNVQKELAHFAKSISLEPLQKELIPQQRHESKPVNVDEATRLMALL
# UniProt Q5T280, sequence (Q5T280 whole entry): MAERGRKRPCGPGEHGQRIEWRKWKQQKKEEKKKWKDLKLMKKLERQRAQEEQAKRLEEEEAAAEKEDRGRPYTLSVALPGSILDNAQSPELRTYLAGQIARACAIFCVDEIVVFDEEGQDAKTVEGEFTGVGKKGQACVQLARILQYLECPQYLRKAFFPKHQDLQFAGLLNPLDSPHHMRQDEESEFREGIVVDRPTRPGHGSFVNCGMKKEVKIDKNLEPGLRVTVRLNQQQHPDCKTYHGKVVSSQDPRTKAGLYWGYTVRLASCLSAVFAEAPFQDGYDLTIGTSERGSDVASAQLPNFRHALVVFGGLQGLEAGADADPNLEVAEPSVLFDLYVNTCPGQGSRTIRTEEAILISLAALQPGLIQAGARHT
Target,"thermal stability z-score [1, 3]",thermal stability z-score ([1]; arsenate co-treatment: none),thermal stability z-score [2]
C1GALT1 (UniProt Q9NS00),-0.00802,-0.575,-0.0716
C1GALT1C1 (UniProt Q96EU7),-0.776,-0.734,0.1
C1ORF52 (UniProt Q8N6N3),0.477,0.0555,-0.417
C1ORF122 (UniProt Q6ZSJ8),1.07,1.18,0.28
C1ORF123 (UniProt Q9NWV4),-0.384,-0.409,-0.929
C1ORF131 (UniProt Q8NDD1),1.04,-0.388,-0.733
C1ORF174 (UniProt Q8IYL3),-2.39,-1.46,-0.845
C1ORF198 (UniProt Q9H425),-0.254,0.135,0.635
C1QBP (UniProt Q07021),-0.549,0.0636,-1.28
C1QTNF6 (UniProt Q9BXI9),-0.0299,0.334,0.794
C1S (UniProt P09871),0.0855,-0.147,0.0687
C2CD2 (UniProt Q9Y426),-0.506,0.109,0.234
C2CD5 (UniProt Q86YS7),0.332,0.297,-0.133
C2ORF47 (UniProt Q8WWC4),0.0998,-0.181,1.09
C2ORF49 (UniProt Q9BVC5),0.426,0.229,0.0813
C3 (UniProt P01024),-1.67,-1.75,-0.371
C3ORF58 (UniProt Q8NDZ4),-0.093,-0.000578,0.287
C4BPA (UniProt P04003),-5.7,-5.12,1.08

Target,"thermal stability z-score [1, 3]",thermal stability z-score ([1]; arsenate co-treatment: none),thermal stability z-score [2]
C4BPB (UniProt P20851),-5.06,-5.39,0.18
C5ORF22 (UniProt Q49AR2),-0.259,0.324,1.13
C5ORF51 (UniProt A6NDU8),-1,-0.695,-0.796
C6ORF106 (UniProt Q9H6K1),-0.69,-0.401,0.242
C7ORF50 (UniProt Q9BRJ6),-0.995,-0.353,-0.593
C8ORF33 (UniProt Q9H7E9),0.833,-0.384,1.19
C8ORF37 (UniProt Q96NL8),0.385,0.235,0.161
C8ORF59 (UniProt Q8N0T1),0.481,0.508,-0.38
C8ORF82 (UniProt Q6P1X6),0.229,-0.151,-0.319
C9ORF40 (UniProt Q8IXQ3),-0.129,0.33,0.0372
C9ORF64 (UniProt Q5T6V5),-0.191,0.121,-0.254
C9ORF78 (UniProt Q9NZ63),0.058,0.278,0.106
C9ORF85 (UniProt Q96MD7),0.0672,1.62,0.132
C9ORF114 (UniProt Q5T280),0.288,0.265,-0.288
C9ORF142 (UniProt Q9BUH6),-0.55,-0.635,-0.706
C10ORF76 (UniProt Q5T2E6),-0.9,0.306,0.613
C11ORF31|SELH,0.115,0.162,-0.153

# — the supplement of paper PMC12463676, “Small-molecule dissolution of stress granules by redox modulation benefits ALS models” (Nature Chemical Biology, 2025)
